# Source: patent publication US6303596A, “Use of taurolidine for treatment of leukemias” (priority 2000, dated 2001)
# Key:
# HL-60 = experiment: LDH release (cell membrane integrity), HL-60; format: cell-based, human
# Description: FIGS. 7A and 7B depict cell viability and growth rates for HL-60 cell line following taurolidine treatment, in terms of % trypan blue negative cells and % cell number, respectively. Cells were treated with various concentrations of taurolidine for 4 hours in AIM-V+0.01% BCS. After aliquots were collected for LDH assay, the remainder of the culture was rinsed in HBSS and resuspended in RPMI+10% BCS without taurolidine. Counts of trypan blue-negative cells (FIG. 7A), and total cell number (FIG. 7B), were recorded daily thereafter (with the measurement at Day 1 being made immediately after the 4 hour taurolidine treatment). Conditions were: no treatment (open circles); 25 μg/ml taurolidine (closed circles); 50 μg/ml taurolidine (open squares); 100 μg/ml taurolidine (closed squares); and vehicle alone (closed triangles). Doubling times were determined under each condition, and expressed as a percentage of the rate of doubling of untreated cells. These values are located to the right of the growth curves in (FIG. 7B). Cells were subcultured when they reached a concentration of 6×10^5 cells/ml. Data are mean±SEM of three experiments.
# In these experiments, integrity of cell membranes following taurolidine treatment was assessed by exclusion of trypan blue and by measuring the release of LDH in MM6, K-562, HL-60, and REH cells. Since BCS contains significant amounts of LDH, these experiments were conducted on cells cultured in AIM-V+0.01% BCS. Four hour treatment of cells was conducted in AIM-V containing 0.01% BCS in order to allow subsequent LDH assay without interference from BCS (which occurs in when normal culture medium, containing 10% BCS, is used). Thus, MM6 cells (5×10^5 cells/ml) were treated with taurolidine for four hours in AIM-V+0.01% BCS, after which an aliquot of the cell suspension was removed for measurement of LDH release. A parallel aliquot of cells was lysed by three cycles of freeze/thaw and the quantity of LDH released was taken to be 100%. […]
# ^a LDH was measured immediately after four hour taurolidine treatment.
# Monocytes = experiment: TUNEL / propidium iodide flow cytometry, monocytes in PBMC, culture medium; format: cell-based, human
# Description: FIG. 14A and FIG. 14B are terminal deoxytransferase-mediated deoxyuridine-triphosphate-biotin nick end labeling assay (TUNEL) analyses of control cells and taurolidine-treated PBMC, respectively. Cells were incubated with 100 μg/ml taurolidine for six hours and processed for TUNEL analysis as given below. Parallel samples were stained with FITC-conjugated anti-CD14 and propidium iodide (PI) as described below. Ten thousand events were recorded per sample. TUNEL signal (x-axis) is a measure of DNA fragmentation, which FSC (y-axis) is related to cell size. TUNEL-negative lymphocytes are bounded by the rectangle R1, while TUNEL-negative monocytes (CD14 positive cells) are bounded by the rectangle R2. The vertical line indicates demarcation between TUNEL-negative and TUNEL-positive cells. There were minimal numbers of PI-positive cells in the six hour samples (see Table IV).
# In the second method, DNA fragmentation was detected via TUNEL assay according to the manufacturer's instructions. With this methodology, 2×10^6 cells were fixed with 2% paraformaldehyde, permeabilized with 0.1% Triton X-100/0.1% citrate, incubated at 37° C. with terminal deoxynucleotidyl transferase and FITC-dUTP, rinsed and analyzed by flow cytometry. Enhanced FITC signal indicates apoptosis-specific DNA fragmentation. Gavriali, et al, "Identification of programmed cell death in situ via specific labeling of nuclear DNA fragmentation," J Cell Biol 119:493 (1992). Parallel aliquots of unfixed cells were treated with PI and FITC-conjugated anti-CD14 and analyzed by flow cytometry, in order to identify cells with permeable cell membranes (since PI binds to DNA but is excluded from cells with intact plasma membranes) and also to determine the cell-specificity of the apoptotic signal.
# A Becton-Dickinson FACSCalibur instrument was used for flow cytometric analysis of cells. Assessment of cell diameter (forward scatter; FCS) and granularity (side scatter; SSC).was carried out on unfixed cells. Discrimination between lymphocytes and monocytes was made possible by their characteristic differences in FSC and SSC, and confirmed by staining monocytes with FITC-labeled anti-CD14 antibodies and lymphocytes with a combination of FITC-conjugated anti-CD3 and PE-conjugated anti-CD19. After incubation with taurolidine (with or without concomitant LPS treatment), cells were rinsed twice in phosphate-buffered saline containing 0.1% bovine serum albumin (PBSA) and 1×10^6 cells were resuspended in 0.1 ml PBSA. After 5 μl FITC-conjugated anti-CD14 was added, cells were incubated in the dark on ice for 15 minutes and then centrifuged at 250×g. Cells were resuspended in 500 μl PBSA containing 5 μg/ml PI and subjected to flow cytometry.
# Consequently, TUNEL analysis was performed on PBMC at 3, 6, or 24 hours after treatment with 25 to 100 μg/ml taurolidine. Aliquots of harvested cells were also labeled with FITC-conjugated anti-CD14 antibodies and PI, which allowed identification of monocytes (CD14-positive cells) and cells with damaged cell membranes (PI-positive cells). […] Thus, nearly 75% of the monocytes were TUNEL-positive following treatment with 100 μg/ml taurolidine for six hours. Confirmation that the TUNEL-positive cells were monocytes was obtained by staining with FITC-conjugated anti-CD14.
# ^a Analysis by flow cytometry after staining cells with FITC-conjugated
# anti-CD14 and PI, and processing for TUNEL. Data are mean ± SD of two
# ^b Percent of cells present in the TUNEL-negative region in control
structure (smiles),measurement,setting,value
"O=S1(=O)CCN(CN2CCS(=O)(=O)NC2)CN1 [taurolidine, 4,4'-methylenebis(perhydro-1,2,4-thiadiazin 1,1-dioxide)]","LDH in culture medium, % of that released by completely lysed cells","HL-60; HL-60, control 2.3±0.8%, 240 min",8.3±2.3%
same,cytotoxicity at 50 µg/mL,"HL-60; Homo sapiens, HL-60, 50 μg/ml, 4 h, read-out: LDH (% of total)",5%
same,cytotoxicity at 100 µg/mL,"HL-60; Homo sapiens, HL-60, 100 μg/ml, 4 h, read-out: LDH (% of total)",6%
same,TUNEL-positive (apoptotic) monocytes,"Monocytes; 100 μg/ml taurolidine, 6 h, culture medium, 360 min",approximately 75%
same,induction of apoptosis at lower doses,"Monocytes; 25 and 50 μg/ml taurolidine, versus 100 μg/ml",lower levels of induction of apoptosis
same,cytotoxicity at 100 µg/mL,"Monocytes; Homo sapiens, Monocyte, 100 μg/ml taurolidine, 6 h, culture medium, read-out: TUNEL-positive (apoptotic) monocytes",~75%
same,viability at 25 µg/mL,"Monocytes; Homo sapiens, Monocyte, monocytes, 25 μg/ml, 6 h, percent of control, read-out: % TUNEL-Negative",88.3 ± 2.7%
same,viability at 50 µg/mL,"Monocytes; Homo sapiens, Monocyte, monocytes, 50 μg/ml, 6 h, percent of control, read-out: % TUNEL-Negative",67.8 ± 18%
same,viability at 100 µg/mL,"Monocytes; Homo sapiens, Monocyte, monocytes, 100 μg/ml, 6 h, percent of control, read-out: % TUNEL-Negative",25.1 ± 11.8%
same,onset of apoptosis after treatment,Monocytes; monocytes,detectable within four to six hours
